Assay results reported in paper PMC4026384, “Antibacterial Activity of THAM Trisphenylguanide against Methicillin-Resistant Staphylococcus aureus” (PLoS ONE, 2014).

Legend:
Acanthamoeba castellanii = assay: Toxicity against eukaryotic pathogen; assay type: cell-based; settings: data not shown
all of the pathogens = assay: MIC against all of the pathogens (LB); assay type: cell-based; settings: complex medium (LB), actively growing bacteria
Protocol: Minimum inhibitory concentration (MIC) values were determined for those compounds showing the most antibacterial activity in the bacterial viability assays (see Supplemental Materials) against each of the strains of bacteria using a microdilution method in 96 well plates with LB media according to guidelines published by the British Society for Antimicrobial Chemotherapy. Minimum bactericidal concentrations (MBC) were determined by plating 10 µL and 100 µL from each well showing no signs of growth after overnight incubation of the MIC plates and determining the minimum concentration showing a 3-log reduction of viable bacteria. MIC and MBC were also determined in cation-adjusted Mueller-Hinton broth (Hardy Diagnostics, Santa Maria, CA) for some compounds and strains.

[1] = tested on: HaCaT human keratinocytes; assay: Cell toxicity assay (MTS); assay type: cell-based
[2] = tested on: human breast cancer cell line MDA-MB-231; assay: Cell toxicity assay (MTS); assay type: cell-based; settings: MDA-231
Balb/c mice = assay: In vivo toxicity study (serum chemistry and enzyme levels); design: species or system mouse; settings: i.p. 0.1 ml of 10, 50, 100 µM, blood two hours post injection, versus mock-treated control
Protocol: THAM-3ΦG was chosen for the in vivo challenge experiments, because it had the best combination of antibacterial activity and low toxicity (Tables 1–3). In vivo toxicity studies were carried out prior to the start of experiments in mice challenged with MRSA. Groups of three Balb/c mice each were injected i.p. with 0.1 ml of 0, 10, 50, and 100 µM THAM-3ФG in PBS. The highest in vivo dose represented 0.36 mg/kg. Blood was drawn from the mice at two hours post injection and submitted for a standard panel of serum chemistry and enzyme levels. The chemistry and enzyme levels were not elevated for any of the concentrations tested compared to the mock-treated control group (data not shown).

MRSA = assay: In vivo MRSA challenge (intraperitoneal infection); design: species or system BALB/c mice; settings: mice, 8 h post infection
Protocol: Three groups of BALB/c mice (8 mice per group) were infected by intraperitoneal (i.p.) injection with 5×10^7 MRSA in 100 µl sterile PBS [16], [17]. The first treatment group was injected i.p. with 100 µl of 100 µM THAM trisphenylguanide in PBS immediately after infection. The second group was injected i.p. with 100 µl of 100 µM THAM trisphenylguanide one hour post-infection. The control group was injected with 100 µl PBS. At eight hours post-infection, all mice were euthanized. An intraperitoneal lavage using 10 ml PBS was performed to recover bacteria within the peritoneal cavity and plated at multiple dilutions on TSA plates. The heart and kidney were removed for evaluation of systemic infection. Briefly, tissues were weighed, homogenized, and plated at multiple dilutions on TSA plates. TSA plates were incubated overnight at 37°C at 5% CO2 and CFU enumerated the next day.

[3] = 100 µM i.p. one hour after MRSA infection

Row | SMILES | IC50 (Acanthamoeba castellanii) [µM] | MIC (all of the pathogens) [µg/mL] | Relative to chlorhexidine (factor by which cytotoxicity was reduced) [1] | Relative to chlorhexidine (factor by which cytotoxicity was reduced) [2] | serum chemistry and enzyme levels (Balb/c mice) | reduction in bacterial burden in both organs (kidneys, heart) and IP lavage (MRSA; 100 µM i.p. immediately after MRSA challenge, versus PBS) | reduction of mean CFUs in IP lavages (MRSA; [3]) [fold] | reduction of mean CFUs in heart (MRSA; [3]) [fold] | reduction of mean CFUs in kidneys (MRSA; [3]) [fold]
1 | [H]/N=C(\N/C(=N/[H])NCCCCCCNC(=N)NC(=N)Nc1ccc(Cl)cc1)Nc1ccc(Cl)cc1 [Chlorhexidine, chlorhexidine, reference compound] | ~10 | ≤ 16 |  |  |  |  |  |  | 
2 | N=C(NCCCCCCNc1nc(NCCCCCCNC(=N)Nc2ccccc2)nc(NCCCCCCNC(=N)Nc2ccccc2)n1)Nc1ccccc1 [THAM-3ΦG, Trishexylaminomelamine trisphenylguanide] |  |  | 7.1 | 3.0 | not elevated | approximately 3 log | 2 | 3 | 20
